Laboratory results: patent US11648258B2, “Method and compounds for inhibiting the MCM complex and their application in cancer treatment” (priority 2012, dated 2023)

How the values were obtained:
[1] = target: T1, hMcm2-hMcm6 interaction (MCM complex) (Homo sapiens, UniProt P49736+Q14566); experiment: Co-immunoprecipitation of MCM subunits in HeLa cell extracts; assay type: cell-based; conditions: asynchronous HeLa cells, whole cell extracts
T1 construct: endogenous in cells; host or cells: HeLa
T1 sequence (P49736 2-904 limits assumed): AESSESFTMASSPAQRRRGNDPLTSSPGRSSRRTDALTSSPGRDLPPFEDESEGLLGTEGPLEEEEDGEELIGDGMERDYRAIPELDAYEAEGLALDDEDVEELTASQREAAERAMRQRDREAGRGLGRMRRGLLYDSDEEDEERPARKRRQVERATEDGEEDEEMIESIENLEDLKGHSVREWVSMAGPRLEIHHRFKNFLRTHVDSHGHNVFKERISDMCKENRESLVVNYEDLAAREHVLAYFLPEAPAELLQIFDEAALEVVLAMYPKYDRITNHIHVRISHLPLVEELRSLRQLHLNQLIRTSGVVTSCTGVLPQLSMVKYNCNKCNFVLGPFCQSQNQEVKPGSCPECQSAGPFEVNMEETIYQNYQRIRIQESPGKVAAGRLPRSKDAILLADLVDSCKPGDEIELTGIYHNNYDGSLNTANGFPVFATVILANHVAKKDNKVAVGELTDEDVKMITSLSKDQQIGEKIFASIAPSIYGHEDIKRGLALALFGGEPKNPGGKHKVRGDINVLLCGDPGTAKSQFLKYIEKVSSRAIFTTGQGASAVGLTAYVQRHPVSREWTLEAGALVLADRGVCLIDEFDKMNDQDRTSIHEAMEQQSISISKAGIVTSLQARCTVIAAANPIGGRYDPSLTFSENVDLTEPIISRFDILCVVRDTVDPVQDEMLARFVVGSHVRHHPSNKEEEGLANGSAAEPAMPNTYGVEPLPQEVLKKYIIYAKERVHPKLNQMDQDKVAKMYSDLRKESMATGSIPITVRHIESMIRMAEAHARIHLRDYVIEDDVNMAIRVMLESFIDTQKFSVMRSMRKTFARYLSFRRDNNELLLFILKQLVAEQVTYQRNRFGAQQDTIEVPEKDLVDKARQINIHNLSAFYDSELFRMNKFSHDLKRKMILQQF
T1 sequence (Q14566 whole entry): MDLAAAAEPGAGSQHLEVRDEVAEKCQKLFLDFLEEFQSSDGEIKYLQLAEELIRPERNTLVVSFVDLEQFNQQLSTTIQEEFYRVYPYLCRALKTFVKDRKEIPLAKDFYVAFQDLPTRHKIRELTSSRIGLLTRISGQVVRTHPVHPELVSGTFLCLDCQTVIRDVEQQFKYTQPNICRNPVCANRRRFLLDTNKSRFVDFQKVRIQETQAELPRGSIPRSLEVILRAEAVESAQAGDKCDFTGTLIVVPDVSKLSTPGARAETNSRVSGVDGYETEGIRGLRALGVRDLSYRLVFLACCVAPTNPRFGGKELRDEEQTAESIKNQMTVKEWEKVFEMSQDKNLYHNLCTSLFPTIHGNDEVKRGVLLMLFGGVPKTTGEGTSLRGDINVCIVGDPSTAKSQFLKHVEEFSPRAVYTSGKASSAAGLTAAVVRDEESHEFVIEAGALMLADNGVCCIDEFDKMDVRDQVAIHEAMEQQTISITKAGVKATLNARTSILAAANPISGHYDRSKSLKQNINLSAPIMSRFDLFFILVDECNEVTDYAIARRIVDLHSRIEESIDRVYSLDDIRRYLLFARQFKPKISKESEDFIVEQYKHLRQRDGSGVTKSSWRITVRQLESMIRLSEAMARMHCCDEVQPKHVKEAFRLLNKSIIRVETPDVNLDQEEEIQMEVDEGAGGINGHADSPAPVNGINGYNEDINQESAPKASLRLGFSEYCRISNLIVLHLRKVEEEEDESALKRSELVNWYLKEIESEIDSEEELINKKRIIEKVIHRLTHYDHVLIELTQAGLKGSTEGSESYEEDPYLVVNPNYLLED
Protocol: To test if 17beta-Deacetyltanghinin targets hMcm2 and hMcm6 proteins in human cells, possible co-immunoprecipitation (co-IP) of the two proteins was tested in human cell extracts from cells treated with 17beta-Deacetyltanghinin. In FIG. 3, asynchronous HeLa cells were treated with DMSO or 17beta-Deacetyltanghinin (DAT) (FIG. 3A), or with DMSO, 17beta-Neriifolin (NRF) or 17beta-Deacetyltanghinin diol (Diol) (FIG. 3B), and whole cell extracts were prepared and further incubated with the compound before being used for co-IP in the presence of the compound. The immunoprecipitates were then immunoblotted with anti-hMcm 6, anti-hMcm2, anti-hMcm4 and anti-hMcm7 antibodies.

[2] = test system: normal cells (L-02, NP460); experiment: WST-1 anti-proliferation assay, normal cells (IC50); assay type: cell-based; conditions: Homo sapiens, 48 hrs treatment
Protocol: For testing the anti-proliferation activity of the compounds in human cell lines and calculation of IC50, cancer cells including HepG2, HeLa and Hep3B (4×10^5 cells/well) and normal L-02 cells (5×10^5 cells/well) were respectively seeded in 96-well plates in 100 μl of culture medium and incubated for about 12 hrs at 37° C. The cells were treated with two-fold serial dilutions of the drugs for 48 hrs. Medium was removed and 100 μl of culture medium containing 1 μM WST-1 (water soluble tetrazolium-1) were added to each well. The cells were incubated for 2 hrs, and absorbance at 405 nm (reference at 630 nm) was then measured. To construct the standard curve of the relationship between cell number and absorbance at OD405, serial dilutions of cells with known cell numbers were seeded and incubated for six hrs before being measured by the WST-1 assay. The cell viability was expressed as the ratio of the number of live cells treated with a candidate compound versus that of the DMSO-treated cells. […]

[3] = test system: L-02 (normal liver) cells and HepG2 (liver cancer) cells; experiment: Growth resumption after drug removal, WST-1 assay; assay type: cell-based, human; conditions: one day treatment, then three days in fresh medium
Protocol: Data in FIGS. 2 and 8A indicate that the anti-proliferation compounds of this invention can specifically kill cancer cells with little cytotoxicity towards normal cells. To test if normal and/or cancer cells could resume cell growth after removal of 17beta-Deacetyltanghinin, L-02 (normal liver) cells and HepG2 (liver cancer) cells were incubated with 17beta-Deacetyltanghinin or DMSO for one day, 17beta-Deacetyltanghinin or DMSO was then removed, and the cells were further incubated with fresh growth medium for three days. Viable cell numbers were monitored daily by WST-1 assay. In FIG. 9, L+DAT refers to L-02 cells treated with 17beta-Deacetyltanghinin; L+D represents L-02 cells treated with DMSO; H+DAT refers to HepG2 cells treated with 17beta-Deacetyltanghinin; and H+D represents HepG2 cells treated with DMSO before being released into fresh medium.

[4] = test system: cancer cell lines (HepG2, Hep3B, HeLa, HK1, C666-1); experiment: cells; assay type: cell-based, human; conditions: for IC50: Homo sapiens, 48 hrs treatment, WST-1, average over cancer cell lines
Protocol: For testing the anti-proliferation activity of the compounds in human cell lines and calculation of IC50, cancer cells including HepG2, HeLa and Hep3B (4×10^5 cells/well) and normal L-02 cells (5×10^5 cells/well) were respectively seeded in 96-well plates in 100 μl of culture medium and incubated for about 12 hrs at 37° C. The cells were treated with two-fold serial dilutions of the drugs for 48 hrs. Medium was removed and 100 μl of culture medium containing 1 μM WST-1 (water soluble tetrazolium-1) were added to each well. The cells were incubated for 2 hrs, and absorbance at 405 nm (reference at 630 nm) was then measured. To construct the standard curve of the relationship between cell number and absorbance at OD405, serial dilutions of cells with known cell numbers were seeded and incubated for six hrs before being measured by the WST-1 assay. The cell viability was expressed as the ratio of the number of live cells treated with a candidate compound versus that of the DMSO-treated cells.
To further test 17beta-Deacetyltanghinin and to determine the IC50 values, besides L-02 and HepG2, Hep3B (another liver cancer cell line which is p53-negative), HeLa (cervical cancer cell line), HK1 and C666-1 (nasopharyngeal carcinoma) cells and a hTert-immortalized normal nasopharyngeal cell line (NP460) were treated by 17beta-Deacetyltanghinin for 48 hrs, and the relative cell vabilities were determined by WST-1 assay (FIG. 2B, C).

[5] = test system: cancer cells (HeLa, HepG2); experiment: Flow cytometry / Annexin V staining (cell cycle, apoptosis) in cancer cells; assay type: cell-based, human
Protocol: Both floating and attached cells were collected and washed once with PBS. Cells were fixed in 70% ethanol for 1 hr to overnight at −20° C., washed thoroughly with PBS, and then stained in 50 μg/ml RNase A, 0.1% Triton X-100, 0.1 mM EDTA (pH 7.4), and 50 μg/ml propidium iodide for 30 min at 4° C. Samples were analyzed with the FACSort instrument (Becton Dickinson).
Moreover, inhibition of DNA replication and subsequent induction of apoptosis by 17beta-Deacetyltanghinin could be shown by flow cytometry. In FIG. 7. Hela cells were blocked at M phase by Nocodazole (Noc.; FIG. 7A), the G1/S transition by mimosine (MMS; FIG. 7B), or at early S phase by Hydroxyurea (HU; FIG. 7C) and then released into fresh medium in the presence of 17beta-Deacetyltanghinin (DAT). The cells at different time points after release were analyzed by follow cytometry. Ayn. means asynchronous cells. Untreated cells and cells treated with the solvent DMSO could complete M, G1 and S phases after release (FIG. 7A). […] Similarly, cells released from the Mimosine (MMS) arrest (at the G1/S transition; FIG. 7B) or Hydroxyurea (HU) arrest (in early S phase; FIG. 7C) could not finish S phase in the presence of 17beta-Deacetyltanghinin.
In FIG. 8A, flow cytometry was performed to analyze the DNA contents in HepG2 and L-02 cells treated with 17beta-Deacetyltanghinin at various concentrations for 24 hrs. In FIG. 8B, Hela cells were treated with 17beta-Deacetyltanghinin for 24 hrs and labeled with Annexin V-Cy3 (Arm. Cy3) for 20 min. Mitoxantrone (MTX), a clinical anticancer drug that can induce apoptosis in cancer cells, was used as a positive control.

In the case of `COC1C(O)[C@H](O[C@H]2CC[C@]3(C)C4CC[C@]5(C)[C@@H](C6=CC(=O)OC6)CC[C@]5(O)[C@@]45O[C@H]5C[C@@H]3C2)OC(C)[C@@H]1O` (stereo partly drawn) [17beta-Deacetyltanghinin, 3β-O-(3-O-methyl-6-deoxy-α-L-glucopyranosyl)-7β,8β-epoxy-14β-hydroxy-card-20(22)-enolide], the “disruption of hMcm2-hMcm6 interaction (co-IP)” value [1] is reported as “disrupted the interaction between hMcm2 and hMcm6”, the IC50 [2] is reported as > 4 µg/mL and the “growth resumption after removal of compound” value [3] is reported as “normal cells, but not cancer cells, resumed growth”. The IC50 [4] was ~0.1 µg/mL, the IC50 ([4]; printed in brackets) was ~200 nM and the “anti-proliferative (anticancer) activity, in words” value ([4]; WST-1 assay, 48 hrs) was “significantly inhibited”. The “Annexin V staining (apoptosis)” value ([5]; HeLa cells, 24 hrs, Annexin V-Cy3) was “could be stained by Annexin V”, the “cell cycle progression after release from Nocodazole arrest” value ([5]; HeLa cells, flow cytometry) was “could complete mitosis but could not enter S phase” and the “induction of apoptosis (sub-G1 population, flow cytometry)” value ([5]; cancer cells) was “induced apoptotic cell death in cancer cells”.
